Results published in ChEMBL document CHEMBL4325912, “Discovery of 2-(1H-imidazo-2-yl)piperazines as a new class of potent and non-cytotoxic inhibitors of Trypanosoma brucei growth in vitro” (Bioorg Med Chem Lett, 2018).
Activity calls are given as the source filed them. The calls are words filed in the database; no cut-off is given here.

Tests used:
[1] = Cytotoxicity against human HeLa cells assessed as reduction in cell viability after 72 hrs by celltiter glo assay; format: cell-based
Trypanosoma brucei [2] = experiment: Antitrypanosomal activity against Trypanosoma brucei Lister 427 bloodstream forms in presence of 10% FBS after 24 hrs by celltiter glo assay; format: functional, organism-based; conditions: Lister 427, 24 h
Histone deacetylase 1 [3] = molecular target: T1, Histone deacetylase 1 (Homo sapiens, UniProt Q13547); experiment: Inhibition of human HDAC1 preincubated for 10 mins followed by BML-KI104 substrate addition and measured after 1 hr by spectrophotometric analysis
T1 sequence (Q13547 whole entry): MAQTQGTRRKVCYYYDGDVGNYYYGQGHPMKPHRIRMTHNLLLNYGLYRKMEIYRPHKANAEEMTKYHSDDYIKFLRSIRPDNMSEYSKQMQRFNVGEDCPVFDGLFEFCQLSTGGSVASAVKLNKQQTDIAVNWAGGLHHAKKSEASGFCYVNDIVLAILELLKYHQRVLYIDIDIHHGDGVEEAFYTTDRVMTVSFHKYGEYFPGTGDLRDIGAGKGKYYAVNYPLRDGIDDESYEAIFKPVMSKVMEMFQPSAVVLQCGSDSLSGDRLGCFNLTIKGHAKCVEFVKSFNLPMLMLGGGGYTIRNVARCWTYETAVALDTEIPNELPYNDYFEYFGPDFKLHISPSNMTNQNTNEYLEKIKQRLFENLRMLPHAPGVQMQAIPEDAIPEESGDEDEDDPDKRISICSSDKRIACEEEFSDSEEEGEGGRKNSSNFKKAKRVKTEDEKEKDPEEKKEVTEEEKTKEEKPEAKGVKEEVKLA

Histone deacetylase 2 [4] = molecular target: T2, Histone deacetylase 2 (Homo sapiens, UniProt Q92769); experiment: Inhibition of human HDAC2
T2 sequence (Q92769 whole entry): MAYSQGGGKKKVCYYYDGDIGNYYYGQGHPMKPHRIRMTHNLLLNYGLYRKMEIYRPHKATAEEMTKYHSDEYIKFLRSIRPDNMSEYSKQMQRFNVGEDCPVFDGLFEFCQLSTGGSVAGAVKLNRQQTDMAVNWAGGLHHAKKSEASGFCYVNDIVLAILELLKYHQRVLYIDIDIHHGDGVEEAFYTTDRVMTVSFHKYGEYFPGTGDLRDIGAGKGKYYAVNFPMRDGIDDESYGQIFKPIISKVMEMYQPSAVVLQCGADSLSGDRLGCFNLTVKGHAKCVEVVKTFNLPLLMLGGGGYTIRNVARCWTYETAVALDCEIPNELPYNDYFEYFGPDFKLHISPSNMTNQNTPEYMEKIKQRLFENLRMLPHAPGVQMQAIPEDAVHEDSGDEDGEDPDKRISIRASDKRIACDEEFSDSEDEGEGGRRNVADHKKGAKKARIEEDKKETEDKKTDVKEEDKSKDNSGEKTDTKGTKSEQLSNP

Histone deacetylase 3 [5] = molecular target: T3, Histone deacetylase 3 (Homo sapiens, UniProt O15379); experiment: Inhibition of human HDAC3
T3 sequence (O15379 whole entry): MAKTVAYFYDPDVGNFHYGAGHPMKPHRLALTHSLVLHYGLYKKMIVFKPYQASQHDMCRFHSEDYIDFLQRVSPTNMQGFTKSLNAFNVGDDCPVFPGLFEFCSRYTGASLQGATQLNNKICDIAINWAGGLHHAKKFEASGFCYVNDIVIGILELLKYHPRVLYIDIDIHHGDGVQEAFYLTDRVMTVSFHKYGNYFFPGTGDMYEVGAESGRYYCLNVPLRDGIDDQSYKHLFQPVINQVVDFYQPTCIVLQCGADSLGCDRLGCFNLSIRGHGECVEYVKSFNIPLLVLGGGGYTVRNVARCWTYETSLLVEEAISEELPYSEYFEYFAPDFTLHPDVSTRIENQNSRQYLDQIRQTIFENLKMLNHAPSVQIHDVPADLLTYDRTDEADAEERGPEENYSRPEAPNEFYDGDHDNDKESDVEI

[6] = molecular target: Class 1 histone deacetylase (Homo sapiens, UniProt Q13547+O15379+Q92769+Q9BY41); experiment: Inhibition of HDAC class 1 in human HeLa cells after 4 hrs by spectrophotometric analysis; format: cell-based
Trypanosoma brucei [7] = experiment: Inhibition of Trypanosoma brucei GSK3
Trypanosoma brucei [8] = experiment: Inhibition of Trypanosoma brucei adenosine kinase
Trypanosoma brucei [9] = experiment: Inhibition of Trypanosoma brucei Aurora 1 kinase
Trypanosoma brucei [10] = experiment: Inhibition of Trypanosoma brucei trypanothione reductase
Histone deacetylase 1 [11] = molecular target: T1, Histone deacetylase 1; experiment: Inhibition of human HDAC1 up to 5 uM preincubated for 10 mins followed by BML-KI104 substrate addition and measured after 1 hr by spectrophotometric analysis
Histone deacetylase 2 [12] = molecular target: T2, Histone deacetylase 2; experiment: Inhibition of human HDAC2 up to 5 uM
Histone deacetylase 3 [13] = molecular target: T3, Histone deacetylase 3; experiment: Inhibition of human HDAC3 up to 5 uM
[14] = molecular target: Histone deacetylase 4 (Homo sapiens) (UniProt P56524); experiment: Inhibition of human HDAC4 up to 5 uM
Sequence of Histone deacetylase 4 (Homo sapiens) (P56524 whole entry): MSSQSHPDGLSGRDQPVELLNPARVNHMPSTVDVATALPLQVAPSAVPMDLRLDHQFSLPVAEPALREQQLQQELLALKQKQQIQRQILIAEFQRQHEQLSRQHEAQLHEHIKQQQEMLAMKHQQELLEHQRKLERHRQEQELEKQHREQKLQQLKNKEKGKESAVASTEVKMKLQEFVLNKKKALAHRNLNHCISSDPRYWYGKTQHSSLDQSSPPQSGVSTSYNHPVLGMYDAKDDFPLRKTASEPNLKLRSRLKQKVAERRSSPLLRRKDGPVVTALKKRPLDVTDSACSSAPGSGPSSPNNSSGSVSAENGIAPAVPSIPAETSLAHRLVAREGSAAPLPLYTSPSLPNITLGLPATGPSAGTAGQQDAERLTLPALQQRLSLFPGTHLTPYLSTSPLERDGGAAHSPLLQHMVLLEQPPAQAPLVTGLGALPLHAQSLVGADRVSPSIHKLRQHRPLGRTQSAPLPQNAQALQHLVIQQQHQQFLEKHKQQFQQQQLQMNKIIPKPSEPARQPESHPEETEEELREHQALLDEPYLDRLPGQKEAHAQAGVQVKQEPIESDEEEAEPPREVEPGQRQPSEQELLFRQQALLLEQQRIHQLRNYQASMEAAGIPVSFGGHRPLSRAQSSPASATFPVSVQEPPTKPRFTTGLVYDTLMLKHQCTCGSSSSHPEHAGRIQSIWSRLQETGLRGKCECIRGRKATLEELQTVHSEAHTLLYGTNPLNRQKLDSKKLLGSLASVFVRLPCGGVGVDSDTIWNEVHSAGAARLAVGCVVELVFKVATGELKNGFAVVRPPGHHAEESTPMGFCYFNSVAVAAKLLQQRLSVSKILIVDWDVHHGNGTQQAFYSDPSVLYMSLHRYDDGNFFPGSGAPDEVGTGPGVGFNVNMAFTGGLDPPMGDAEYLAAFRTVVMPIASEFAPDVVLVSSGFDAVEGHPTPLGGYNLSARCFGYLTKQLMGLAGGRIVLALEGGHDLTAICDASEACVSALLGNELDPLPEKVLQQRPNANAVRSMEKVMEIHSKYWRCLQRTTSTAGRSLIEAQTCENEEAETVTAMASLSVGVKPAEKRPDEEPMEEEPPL

[15] = molecular target: Histone deacetylase 5 (Homo sapiens) (UniProt Q9UQL6); experiment: Inhibition of human HDAC5 up to 5 uM
Sequence of Histone deacetylase 5 (Homo sapiens) (Q9UQL6 whole entry): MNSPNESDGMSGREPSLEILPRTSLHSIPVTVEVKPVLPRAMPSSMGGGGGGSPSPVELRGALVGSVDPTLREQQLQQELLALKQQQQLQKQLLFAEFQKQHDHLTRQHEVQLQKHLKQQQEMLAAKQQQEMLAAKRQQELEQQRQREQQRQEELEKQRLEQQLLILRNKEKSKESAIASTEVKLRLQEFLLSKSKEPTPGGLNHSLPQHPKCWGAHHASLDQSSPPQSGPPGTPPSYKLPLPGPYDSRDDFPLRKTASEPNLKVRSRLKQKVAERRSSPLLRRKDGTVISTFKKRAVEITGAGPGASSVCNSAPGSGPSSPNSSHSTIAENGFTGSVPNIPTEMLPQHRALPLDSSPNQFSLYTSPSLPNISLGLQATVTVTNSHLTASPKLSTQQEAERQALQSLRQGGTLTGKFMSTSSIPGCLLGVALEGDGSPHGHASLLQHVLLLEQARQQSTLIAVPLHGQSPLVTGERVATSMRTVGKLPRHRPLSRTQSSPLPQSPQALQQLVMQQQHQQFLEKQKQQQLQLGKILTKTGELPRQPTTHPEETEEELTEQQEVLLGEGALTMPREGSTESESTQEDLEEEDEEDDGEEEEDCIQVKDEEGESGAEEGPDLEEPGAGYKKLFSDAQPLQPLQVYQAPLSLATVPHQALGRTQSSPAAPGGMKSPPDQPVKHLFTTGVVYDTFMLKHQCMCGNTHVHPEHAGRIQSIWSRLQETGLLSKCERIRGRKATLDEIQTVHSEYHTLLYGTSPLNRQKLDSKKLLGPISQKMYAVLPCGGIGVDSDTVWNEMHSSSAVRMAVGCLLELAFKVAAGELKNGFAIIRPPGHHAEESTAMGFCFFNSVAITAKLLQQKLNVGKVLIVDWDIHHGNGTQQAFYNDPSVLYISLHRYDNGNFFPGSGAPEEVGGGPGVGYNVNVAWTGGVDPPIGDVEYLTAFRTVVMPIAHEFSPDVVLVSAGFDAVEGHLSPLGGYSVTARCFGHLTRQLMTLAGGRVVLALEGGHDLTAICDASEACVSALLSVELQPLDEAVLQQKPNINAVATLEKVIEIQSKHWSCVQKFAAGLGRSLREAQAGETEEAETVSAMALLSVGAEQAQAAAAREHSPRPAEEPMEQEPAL

[16] = molecular target: T4, Protein deacetylase HDAC6 (Homo sapiens) (UniProt Q9UBN7); experiment: Inhibition of human HDAC6 up to 5 uM
T4 sequence (whole entry): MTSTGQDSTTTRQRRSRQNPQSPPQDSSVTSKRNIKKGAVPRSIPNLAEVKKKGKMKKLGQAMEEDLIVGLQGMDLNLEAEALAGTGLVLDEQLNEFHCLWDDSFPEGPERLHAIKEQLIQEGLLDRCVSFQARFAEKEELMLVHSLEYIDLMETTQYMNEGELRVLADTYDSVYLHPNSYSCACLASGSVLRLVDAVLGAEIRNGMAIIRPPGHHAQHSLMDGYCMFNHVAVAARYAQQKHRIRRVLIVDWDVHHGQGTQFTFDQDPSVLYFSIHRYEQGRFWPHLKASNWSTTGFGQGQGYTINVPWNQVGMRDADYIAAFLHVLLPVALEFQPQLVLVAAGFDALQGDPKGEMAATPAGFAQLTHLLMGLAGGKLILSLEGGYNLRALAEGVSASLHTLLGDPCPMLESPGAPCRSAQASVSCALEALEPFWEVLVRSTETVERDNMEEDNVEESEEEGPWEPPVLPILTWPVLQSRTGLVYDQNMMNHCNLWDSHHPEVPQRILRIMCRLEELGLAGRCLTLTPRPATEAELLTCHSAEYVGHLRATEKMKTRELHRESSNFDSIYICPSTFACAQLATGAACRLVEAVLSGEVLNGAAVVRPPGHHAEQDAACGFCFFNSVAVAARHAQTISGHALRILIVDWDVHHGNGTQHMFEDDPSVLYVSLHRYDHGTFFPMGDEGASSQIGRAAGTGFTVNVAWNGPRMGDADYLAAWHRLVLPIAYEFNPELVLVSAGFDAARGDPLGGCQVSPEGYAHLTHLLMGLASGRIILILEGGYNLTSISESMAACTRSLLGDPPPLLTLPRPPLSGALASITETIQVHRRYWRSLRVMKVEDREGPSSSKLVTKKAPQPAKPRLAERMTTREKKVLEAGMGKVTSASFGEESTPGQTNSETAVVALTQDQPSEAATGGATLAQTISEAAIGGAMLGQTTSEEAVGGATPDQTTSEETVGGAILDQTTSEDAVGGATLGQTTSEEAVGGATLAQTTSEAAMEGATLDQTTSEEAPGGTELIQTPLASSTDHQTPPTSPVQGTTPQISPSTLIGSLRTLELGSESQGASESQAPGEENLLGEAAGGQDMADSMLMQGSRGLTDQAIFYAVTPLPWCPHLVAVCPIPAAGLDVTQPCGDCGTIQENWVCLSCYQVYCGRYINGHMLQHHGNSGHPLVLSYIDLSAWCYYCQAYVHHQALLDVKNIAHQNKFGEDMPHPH

[17] = molecular target: T5, Histone deacetylase 7 (Homo sapiens) (UniProt Q8WUI4); experiment: Inhibition of human HDAC7 up to 5 uM
T5 sequence (whole entry): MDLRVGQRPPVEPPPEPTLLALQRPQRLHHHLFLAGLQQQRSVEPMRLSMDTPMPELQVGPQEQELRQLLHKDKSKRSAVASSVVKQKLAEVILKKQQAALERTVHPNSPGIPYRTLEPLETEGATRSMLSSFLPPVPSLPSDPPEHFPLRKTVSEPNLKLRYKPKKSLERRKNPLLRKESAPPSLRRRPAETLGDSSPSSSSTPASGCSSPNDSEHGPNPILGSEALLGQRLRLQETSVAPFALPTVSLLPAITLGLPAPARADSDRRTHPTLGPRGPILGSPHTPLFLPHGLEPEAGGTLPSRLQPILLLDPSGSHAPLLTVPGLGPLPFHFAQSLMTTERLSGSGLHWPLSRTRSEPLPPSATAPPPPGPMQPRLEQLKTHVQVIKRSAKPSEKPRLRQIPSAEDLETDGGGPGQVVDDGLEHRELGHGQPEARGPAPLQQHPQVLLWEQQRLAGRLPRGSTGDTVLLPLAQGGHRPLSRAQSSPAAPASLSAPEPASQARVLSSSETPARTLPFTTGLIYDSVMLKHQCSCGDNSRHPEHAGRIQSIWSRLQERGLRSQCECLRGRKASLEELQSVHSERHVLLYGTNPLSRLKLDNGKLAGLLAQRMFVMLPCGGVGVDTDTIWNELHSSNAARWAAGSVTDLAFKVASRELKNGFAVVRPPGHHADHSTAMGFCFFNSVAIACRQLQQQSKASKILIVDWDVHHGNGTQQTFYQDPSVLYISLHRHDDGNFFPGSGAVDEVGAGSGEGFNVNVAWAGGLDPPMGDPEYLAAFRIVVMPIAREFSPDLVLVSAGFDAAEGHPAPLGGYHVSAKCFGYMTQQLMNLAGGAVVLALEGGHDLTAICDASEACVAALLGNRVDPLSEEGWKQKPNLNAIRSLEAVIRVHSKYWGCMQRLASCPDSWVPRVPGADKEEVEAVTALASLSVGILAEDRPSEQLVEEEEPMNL

[18] = molecular target: T6, Histone deacetylase 8 (Homo sapiens) (UniProt Q9BY41); experiment: Inhibition of human HDAC8 up to 5 uM
T6 sequence (whole entry): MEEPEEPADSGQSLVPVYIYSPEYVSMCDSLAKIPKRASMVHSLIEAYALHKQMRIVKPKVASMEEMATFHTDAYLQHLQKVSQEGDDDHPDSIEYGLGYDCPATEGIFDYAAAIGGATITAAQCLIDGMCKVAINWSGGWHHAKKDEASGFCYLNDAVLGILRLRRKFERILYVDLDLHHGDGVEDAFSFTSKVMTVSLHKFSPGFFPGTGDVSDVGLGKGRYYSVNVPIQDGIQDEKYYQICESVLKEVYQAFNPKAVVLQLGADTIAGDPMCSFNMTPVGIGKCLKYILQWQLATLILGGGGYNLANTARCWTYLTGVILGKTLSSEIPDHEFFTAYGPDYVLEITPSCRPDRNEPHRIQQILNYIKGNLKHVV

[19] = molecular target: Histone deacetylase 9 (Homo sapiens) (UniProt Q9UKV0); experiment: Inhibition of human HDAC9 up to 5 uM
Sequence of Histone deacetylase 9 (Homo sapiens) (Q9UKV0 whole entry): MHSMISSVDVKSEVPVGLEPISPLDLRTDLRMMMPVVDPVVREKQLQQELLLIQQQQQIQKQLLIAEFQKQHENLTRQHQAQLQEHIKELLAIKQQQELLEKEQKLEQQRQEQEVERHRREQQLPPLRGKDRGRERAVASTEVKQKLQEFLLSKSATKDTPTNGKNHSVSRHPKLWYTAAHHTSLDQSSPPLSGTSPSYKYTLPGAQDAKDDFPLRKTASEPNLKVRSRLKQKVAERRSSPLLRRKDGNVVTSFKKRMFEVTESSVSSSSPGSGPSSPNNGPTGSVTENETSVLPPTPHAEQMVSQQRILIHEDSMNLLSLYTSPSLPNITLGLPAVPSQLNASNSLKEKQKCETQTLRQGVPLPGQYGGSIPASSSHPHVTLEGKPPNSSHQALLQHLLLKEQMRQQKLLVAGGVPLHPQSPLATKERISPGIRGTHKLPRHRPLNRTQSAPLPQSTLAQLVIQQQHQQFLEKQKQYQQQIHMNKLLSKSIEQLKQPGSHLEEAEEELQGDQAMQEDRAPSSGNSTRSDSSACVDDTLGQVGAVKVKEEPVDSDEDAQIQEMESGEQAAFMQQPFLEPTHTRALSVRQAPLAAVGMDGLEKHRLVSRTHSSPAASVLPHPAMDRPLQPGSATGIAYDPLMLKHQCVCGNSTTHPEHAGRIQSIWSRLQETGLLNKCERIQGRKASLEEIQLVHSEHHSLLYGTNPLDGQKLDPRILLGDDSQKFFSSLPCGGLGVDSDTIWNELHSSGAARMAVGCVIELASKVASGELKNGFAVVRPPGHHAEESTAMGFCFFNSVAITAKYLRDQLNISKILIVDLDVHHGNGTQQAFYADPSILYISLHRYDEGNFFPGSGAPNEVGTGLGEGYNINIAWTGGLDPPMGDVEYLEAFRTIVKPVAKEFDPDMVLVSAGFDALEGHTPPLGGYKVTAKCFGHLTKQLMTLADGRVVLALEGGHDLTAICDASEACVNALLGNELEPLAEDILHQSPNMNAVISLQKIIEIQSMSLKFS

[20] = Half life in human hepatocytes; format: ADME, cell-based, Hepatocyte
[21] = Half life in mouse hepatocytes; format: ADME, cell-based, Hepatocyte
Plasmodium falciparum = experiment: Antimalarial activity against Plasmodium falciparum 3D7 infected in human erythrocytes after 72 hrs by spectrophotometric analysis; format: functional, organism-based; conditions: 3D7, 72 h
Trypanosoma cruzi = experiment: Antiparasitic activity against Trypanosoma cruzi; format: functional, organism-based
[22] = Selectivity index, ratio of EC50 for Trypanosoma cruzi to EC50 for antitrypanosomal activity against Trypanosoma brucei Lister 427 bloodstream forms; format: functional
[23] = Cytotoxicity against HUVEC; format: cell-based; conditions: human
[24] = Selectivity index, ratio of EC50 for Plasmodium falciparum 3D7 infected in human erythrocytes to EC50 for antitrypanosomal activity against Trypanosoma brucei Lister 427 bloodstream forms; format: functional

Structure (SMILES) | CC50 at 72 h [1] [µM] | EC50 (Trypanosoma brucei [2]) [nM] | other results
CCC(=O)CCCN1CCN(C(=O)Cc2c[nH]c3ccccc23)C(c2ncc(-c3ccc4ccccc4c3)[nH]2)C1 (configuration not stated) | > 25 | 489 | IC50 (Histone deacetylase 1 [3]): > 25 µM; IC50 (Histone deacetylase 2 [4]): > 25 µM; IC50 (Histone deacetylase 3 [5]): > 25 µM; IC50 [6]: > 25 µM
COc1ccc2[nH]c(C)c(CC(=O)N3CCN(C)CC3c3ncc(-c4ccc5ccccc5c4)[nH]3)c2c1 (configuration not stated) | > 25 | 38 | inhibition (Trypanosoma brucei [7]): inactive; inhibition (Trypanosoma brucei [8]): inactive; inhibition (Trypanosoma brucei [9]): inactive; inhibition (Trypanosoma brucei [10]): inactive
CCCCCCN1CCN(C(=O)Cc2c(C)[nH]c3ccc(OC)cc23)C(c2ncc(-c3ccc4ccccc4c3)[nH]2)C1 (configuration not stated) | > 25 | 79 | –
COC(=O)CCCN1CCN(C(=O)Cc2c(C)[nH]c3ccc(OC)cc23)C(c2ncc(-c3ccc4ccccc4c3)[nH]2)C1 (configuration not stated) | 28.8 | 154 | –
COc1ccc2[nH]c(C)c(CC(=O)N3CCN(CCCC(=O)O)CC3c3ncc(-c4ccc5ccccc5c4)[nH]3)c2c1 (configuration not stated) | > 50 | 1100 | –
CCC(=O)CCCN1CCN(C(=O)Cc2c[nH]c3ccccc23)[C@@H](c2ncc(-c3ccc4ccccc4c3)[nH]2)C1 | > 32 | 4360 | –
CCC(=O)CCCN1CCN(C(=O)Cc2ccccc2)C(c2ncc(-c3ccc4ccccc4c3)[nH]2)C1 (configuration not stated) | > 25 | 1800 | –
CCC(=O)CCCN1CCN(C(=O)Cc2c(C)[nH]c3ccc(OC)cc23)C(c2ncc(-c3ccc4ccccc4c3)[nH]2)C1 (configuration not stated) | 12.3 | 10 | inhibition (Histone deacetylase 1 [11]): inactive; inhibition (Histone deacetylase 2 [12]): inactive; inhibition (Histone deacetylase 3 [13]): inactive; inhibition [14]: inactive; inhibition [15]: inactive; inhibition [16]: inactive; inhibition [17]: inactive; inhibition [18]: inactive; inhibition [19]: inactive
CNC(=O)CCCN1CCN(C(=O)Cc2c(C)[nH]c3ccc(OC)cc23)C(c2ncc(-c3ccc4ccccc4c3)[nH]2)C1 (configuration not stated) | > 5 | 148 | –
CCC(=O)CCCN1CCN(C(=O)Cc2c(C)[nH]c3ccc(OC)cc23)C(c2ncc(-c3ccc4ccccc4c3)o2)C1 (configuration not stated) | 20.6 | 1260 | –
CCC(=O)CCCN1CCN(C(=O)Oc2ccccc2)C(c2ncc(-c3ccc4ccccc4c3)[nH]2)C1 (configuration not stated) | 16.6 | 1220 | –
CCC(=O)CCCN1CCN(C(C)=O)C(c2ncc(-c3ccc4ccccc4c3)[nH]2)C1 (configuration not stated) | > 32 | > 25000 | –
CCC(=O)CCCN1CCN(Cc2ccccc2)C(c2ncc(-c3ccc4ccccc4c3)[nH]2)C1 (configuration not stated) | 14.7 | 1720 | –
CCC(=O)CCCN1CCN(C(=O)Cc2c[nH]c3ccccc23)[C@H](c2ncc(-c3ccc4ccccc4c3)[nH]2)C1 | > 25 | 423 | –
CCC(=O)CCCN1CCN(C(=O)c2ccccc2)C(c2ncc(-c3ccc4ccccc4c3)[nH]2)C1 (configuration not stated) | > 32 | 1560 | –
COc1ccc2[nH]c(C)c(CC(=O)N3CCN(CC4CCOC4)CC3c3ncc(-c4ccc5ccccc5c4)[nH]3)c2c1 (mixture of isomers) | > 25 | 5 | half-life [20]: 144 min; half-life [21]: 24 min; EC50 (Plasmodium falciparum): 3.62 µM; EC50 (Trypanosoma cruzi): 8.12 µM; Ratio EC50 [22]: 1000; CC50 [23]: 18.7 µM; Ratio EC50 [24]: 1000
COc1ccc2[nH]c(C)c(CC(=O)N3CCN(CCCC(C)O)CC3c3ncc(-c4ccc5ccccc5c4)[nH]3)c2c1 (configuration not stated) | 13.1 | 13 | –
CCC(=O)CCCN1CCN(C(=O)Cc2c(C)[nH]c3ccc(OC)cc23)C(c2nnc(-c3ccc4ccccc4c3)o2)C1 (configuration not stated) | > 25 | 304 | –
CCC(=O)CCCN1CCN(S(=O)(=O)c2ccccc2)C(c2ncc(-c3ccc4ccccc4c3)[nH]2)C1 (configuration not stated) | > 25 | 4120 | –
COc1ccc2[nH]c(C)c(CC(=O)N3CCN(CCCC(N)=O)CC3c3ncc(-c4ccc5ccccc5c4)[nH]3)c2c1 (configuration not stated) | > 25 | 207 | –
CCC(=O)CCCN1CCN(C(=O)Nc2ccccc2)C(c2ncc(-c3ccc4ccccc4c3)[nH]2)C1 (configuration not stated) | > 25 | 1430 | –
CCC(=O)CCC(=O)N1CCN(C(=O)Cc2c(C)[nH]c3ccc(OC)cc23)C(c2ncc(-c3ccc4ccccc4c3)[nH]2)C1 (configuration not stated) | > 25 | 492 | –
CCC(=O)CCCN1CCN(C(=O)Cc2c[nH]c3ncccc23)C(c2ncc(-c3ccc4ccccc4c3)[nH]2)C1 (configuration not stated) | > 25 | 545 | –
COc1ccc2[nH]c(C)c(CC(=O)N3CCN(CC4CC4)CC3c3ncc(-c4ccc5ccccc5c4)[nH]3)c2c1 (configuration not stated) | > 25 | 16 | –
